Source: US5990317A, “2-(1H-4(5)-imidazoyl) cyclopropyl compounds” (Gliatech, Inc., priority 1998, dated 1999)
Structures can show the parent of a compound that is named as a salt.

Target: Histamine H3 receptor
Assay: In Vitro Histamine H3 Receptor Binding Analysis ([3H]-N-alpha-methylhistamine displacement, rat cortical membranes)
Conditions: [3H]-N-alpha-methylhistamine 0.8-1.2 nM, pH 7.4, 40 min, 25° C, read-out: Histamine H3 Receptor Binding Affinities, H3 Receptor Ki
Procedure: Histamine H3 receptor affinity was determined in rat cortical membranes using the H3 selective agonist ligand, [^3 H]-N^α -methylhistamine (78.9 Ci/mole, DuPont NEN Research Products, Boston, Mass.) according to the method of West et al., (1990) Mol. Pharmacol. 38: 610-613 with modifications. Briefly, animals were sacrificed by decapitation and the cerebral cortex was rapidly removed. Rat cortices were mechanically homogenized with an Omni 1000 motor driven homogenizer in 10 volumes (wt/vol) of Krebs-Ringers Hepes buffer (pH 7.4) containing the following protease inhibitors: EDTA (10 mM), PMSF (0.1 mM), chymostatin (0.2 mg/50 mL) and leupeptin (0.2 mg/50 mL). The homogenate was centrifuged in a Sorvall at ~40,000×g for 30 min. The pellet was resuspended by mechanical homogenization in 25 mL water and lysed on ice for 30 min. The homogenate was recentrifuged and the membrane lysis was repeated. The membranes were recentrifuged and the final pellet was resuspended in 14 volumes of water to give approximately 200 μg protein/100 μl final concentration. The suspension was stored at -80° prior to use. Protein concentrations were determined by Coomassie Plus Protein Assay (Pierce, Rockford, Ill.).
Nonspecific binding (NSB) was accounted for by the inclusion of thioperamide (10 μM). Samples were incubated for 40 minutes at 25° C. The samples were filtered through glass fiber strips, pre-washed with 0.3% polyethyleneimine, using a Brandell cell harvester. The filters were rapidly washed three times with 4 ml of 25 mm Tris buffer containing 145 mM NaCl (pH 7.4, 4° C.). Filters were transferred to polyethylene mini-vials and counted in 3.5 ml of scintillation fluid (Ecolume, ICN Biomedicals, Inc.). […] Saturation and competition experiments were analyzed with the ReceptorFit saturation and competition curve fitting programs (Lundon Software, Ind., Cleveland, Ohio).

SMILES	Ki
O=C(N[C@@H]1C[C@H]1c1c[nH]cn1)[C@@H]1CC2CCCCC2N1 (stereo partly shown) [Example 15]	37 ± 4 nM
NC(C=CC1CC1c1c[nH]cn1)CC1CCCCC1 [Example 20, (1R,2R)-trans-1-cyclohexyl-4-(2-imidazol-4-ylcyclopropyl)but-trans-3-en-2(S)-ylamine]	0.37 ± 0.2 nM
OC(CCCC1CCCCC1)[C@@H]1C[C@H]1c1c[nH]cn1 (mixture of isomers) [Example 19, (±)-trans-4-cyclohexyl-1-(2-imidazol-4-ylcyclopropyl)butan-1-ol]	160 ± 9 nM
C(=C\[C@@H]1C[C@H]1c1c[nH]cn1)/CCC1CCCCC1 (relative stereo) [Example 17, (±)-trans-4-(2-(4-cyclohexylbut-trans-1-enyl)cyclopropyl)imidazole]	11 ± 1 nM
CN(CC1CCCCC1)C(=O)[C@@H]1C[C@H]1c1c[nH]cn1 (racemic) [Example 11, (±)-trans-N-(cyclohexylmethyl)(2-imidazol-4-ylcyclopropyl)-N-methylformamide]	134 ± 13 nM
O=C(NCCCc1ccccc1)[C@@H]1C[C@H]1c1c[nH]cn1 (relative stereo) [Example 33, (±)-trans-(2-imidazol-4-ylcyclopropyl)-N-(3-phenylpropyl)formamide]	197 ± 23 nM
C(=CC1CC1c1c[nH]cn1)CCC1CCCCC1 [Example 23, (1R,2R)-trans-4-(2-(4-cyclohexylbut-cis-1-enyl)cyclopropyl)imidazole]	6.2 ± 0.8 nM
O=C(NCCC1=CCCCC1)[C@@H]1C[C@H]1c1c[nH]cn1 (relative stereo) [Example 31, N-[2-Cyclohex-1-enyl-ethyl]-3(R)-[1H-imidazol-4-yl]-2(R)-cyclopropanamide HCl salt and N-[2-Cyclohex-1-enyl-ethyl]-3(S)-[1H-imidazol-4-yl]-2(S)-cyclopropanamide HCl salt]	294 ± 26 nM
O=C(NCCc1c[nH]cn1)[C@@H]1C[C@H]1c1c[nH]cn1 (relative stereo) [Example 34, (±)-trans-(2-imidazol-4-ylcyclopropyl)-N-(2-imidazol-4-ylethyl)formamide]	227 ± 26 nM
O=C(NCC1CC1)[C@@H]1C[C@H]1c1c[nH]cn1 (relative stereo) [Example 32, (±)-trans-N-(cyclopropylmethyl)(2-imidazol-4-ylcyclopropyl)formamide]	876 ± 158 nM
O=C(NCc1ccccc1)[C@@H]1C[C@H]1c1c[nH]cn1 (relative stereo) [Example 1, N-(1-Benzyl)-3-[(1H-imidazol-4-yl)]-(2R,3R)-trans-cyclopropanamide and N-(1-Benzyl)-3-[(1H-imidazol-4-yl)]-(2S,3S)-trans-cyclopropanamide hydrochloride]	53 ± 2 nM
O=C(NCC1CCCCC1)[C@@H]1C[C@H]1c1c[nH]cn1 (relative stereo) [Example 2, (±)-trans-N-(cyclohexylmethyl)(2-imidazol-4-ylcyclopropyl)formamide]	37 ± 4 nM
C[C@@H](NC(=O)C1CC1c1c[nH]cn1)C1CCCCC1 (mixture of isomers) [Example 6, N-[(R)-1-Cyclohexylethyl]-3-(1H-imidazol-4-yl)-trans-(2R,3R)-cyclopropanamide and N-[(R)-1-Cyclohexylethyl]-3-(1H-imidazol-4-yl)-trans-(2S,3S)-cyclopropanamide hydrochloride]	70 ± 8.6 nM
C(=C/[C@@H]1C[C@H]1c1c[nH]cn1)/CCC1CCCCC1 (relative stereo) [Example 16, (±)-trans-4-(2-(4-cyclohexylbut-cis-1-enyl)cyclopropyl)imidazole]	12.2 ± 1 nM
O=C(NCC1CCCCC1)[C@H]1C[C@@H]1c1c[nH]cn1 [Example 2a]	23 ± 1 nM
C(=CC1CC1c1c[nH]cn1)CCC1CCCCC1 [Example 22, (1R,2R)-trans--4-(2-(4-cyclohexylbut-trans-1-enyl)cyclopropyl)imidazole]	2.4 ± 0.2 nM
O=C(NCCc1c[nH]c2ccccc12)[C@@H]1C[C@H]1c1c[nH]cn1 (relative stereo) [Example 35, (±)-trans-(2-imidazol-4-ylcyclopropyl)-N-(2-indol-3-ylethyl)formamide]	44 ± 73 nM
O=C(NCCCC1CCCCC1)C1CC1c1c[nH]cn1 (stereo not shown) [Example 30]	42 ± 7 nM
O=C(N[C@@H]1C[C@H]1c1c[nH]cn1)OCc1ccccc1 (relative stereo) [Example 26, (±)-trans-N-(2-imidazol-4ylcyclopropyl)(phenylmethoxy)formamide]	5.8 ± 0.4 nM

SMILES	Ki
NC(C=CC1CC1c1c[nH]cn1)CC1CCCCC1 [Example 21, 1(R)-[1H-imidazol-4-yl]-2(R)-cyclopropyl-5-(S)-amino-6-cyclohexyl-3-cis-hexene]	97.7 ± 28 nM
O=C(NCC12CC3CC(CC(C3)C1)C2)[C@@H]1C[C@H]1c1c[nH]cn1 (relative stereo) [Example 8, N-[1-Adamantylmethyl]-3-(1H-imidazol-4-yl)-trans-(2R,3R)-cyclopropanamide hydrochloride and N-[1-Adamantylmethyl]-3-(1H-imidazol-4-yl)-trans-(2S,3S)-cyclopropanamide hydrochloride]	55 ± 6 nM
CC1CCCCN1CCCNC(=O)[C@@H]1C[C@H]1c1c[nH]cn1 (relative stereo) [Example 3, (±)-trans-(2-imidazol-4-ylcyclopropyl)-N-(3-((±)-2-methylpiperidyl)formamide]	659 ± 52 nM
NC(CC1CCCCC1)C(=O)NC1CC1c1c[nH]cn1 [Example 13, (1S,2S)-trans-2(S)-amino-3-cyclohexyl-N-(2-imidazol-4-ylcyclopropyl)propanamide]	21.5 ± 1.8 nM
c1nc([C@@H]2C[C@H]2COCCCC2CCCCC2)c[nH]1 (racemic) [Example 18, (±)-trans-(3-cyclohexylpropoxy)(2-imidazol-4-ylcyclopropyl)methane]	240 ± 6 nM
NC(CC1CCCCC1)C(=O)NC1CC1c1c[nH]cn1 [Example 12, (1R,2R)-trans-2(S)-amino-3-cyclohexyl-N-(2-imidazol-4-ylcyclopropyl)propanamide]	1.85 ± 0.5 nM
C(=CC1CC1c1c[nH]cn1)CCC1CCCCC1 [Example 25, (1S,2S)-trans-4-(2-(4-cyclohexylbut-trans-1-enyl)cyclopropyl)imidazole]	56 ± 9 nM
O=C(NCC1CCCCC1)[C@@H]1C[C@H]1c1c[nH]cn1 [Example 2b]	176 ± 9 nM
O=C(NCCCCC1CCCCC1)[C@@H]1C[C@H]1c1c[nH]cn1 (relative stereo) [Example 37, (±)-trans-N-(4-cyclohexylbutyl)(2-imidazol-4-ylcyclopropyl)formamide]	68 nM
O=C(Nc1ccccc1)[C@@H]1C[C@H]1c1c[nH]cn1 (relative stereo) [Example 5, N-(phenyl)-3-(1H-imidazol-4-yl)-trans-(2R,3R)-cyclopropanamide and N-(phenyl)-3-(1H-imidazol-4-yl)-trans-(2S,3S)-cyclopropanamide hydrochloride]	267 ± 26 nM
C(=CC1CC1c1c[nH]cn1)CCC1CCCCC1 [Example 24, (1S,2S)-trans-4-(2-(4-cyclohexylbut-cis-1-enyl)cyclopropyl)imidazole]	108 ± 3.9 nM
O=C(NCCCC1CCCCC1)[C@@H]1C[C@H]1c1c[nH]cn1 (relative stereo) [Example 29, N-[3-cyclohexylpropyl]-3(R)-[1H-imidazoyl-4-yl]-2(R)-cyclopropanamide and N-[3-Cyclohexylpropyl]-3(S)-[1H-imidazoyl-4-yl]-2(R)-cyclopropanamide]	36 ± 8 nM
O=C(N[C@H]1C[C@@H]1c1c[nH]cn1)[C@@H]1CC2CCCCC2N1 (stereo partly drawn) [Example 14, (2R,3R)-trans-(7-azabicyclo[43.0]non-(S)-8-yl)-N-(2-imidazol-4-ylcyclopropyl)formamide]	8.5 ± 0.7 nM
O=C(CCCC1CCCCC1)[C@@H]1C[C@H]1c1c[nH]cn1 (racemic) [Example 10, (±)-trans-4-cyclohexyl-1-(2-imidazol-4-ylcyclopropyl)butan-1-one]	97 ± 21 nM
C[C@H](NC(=O)C1CC1c1c[nH]cn1)C1CCCCC1 (mixture of isomers) [Example 7, N-[(S)-1-Cyclohexylethyl]-3-(1H-imidazol-4-yl)-trans-(2R,3R)-cyclopropanamide and N-[(S)-1-Cyclohexylethyl]-3-(1H-imidazol-4-yl)-trans-(2S,3S)-cyclopropanamide hydrochloride]	146 ± 13 nM
O=C(NCCCN1CCOCC1)[C@@H]1C[C@H]1c1c[nH]cn1 (relative stereo) [Example 4, (±)-trans-(2-imidazol-4-ylcyclopropyl)-N-(3-morpholin-4-ylpropyl)formamide]	1400 ± 158 nM
O=C(NCCc1ccccc1)[C@@H]1C[C@H]1c1c[nH]cn1 (relative stereo) [Example 9, (±)-trans-(2-imidazol-4-ylcyclopropyl)-N-(2-phenylethyl)formamide]	163 ± 19 nM
O=C(NCC(O)CC1CCCCC1)[C@@H]1C[C@H]1c1c[nH]cn1 (relative stereo) [Example 36, (±)-trans-N-(3-cyclohexyl-2-(±)-hydroxypropyl)(2-imidazol-4-ylcyclopropyl)formamide]	145 nM
